Values after ≈ are worked out from the molar mass of the structure shown.
Legend:
Candida albicans [1] = experiment: Induction of apoptosis in Candida albicans ATCC 90028 assessed as live cells at antifungal MIC90 after 24 hrs by Annexin V/propidium iodide staining based flow cytometry (reference value: 99.8%); assay type: functional
Candida parapsilosis [2] = experiment: Antifungal activity against Candida parapsilosis ATCC 22019 by broth microdilution assay; assay type: functional; details: Lodderomyces parapsilosis
Nakaseomyces glabratus [3] = experiment: Induction of apoptosis in Candida glabrata ATCC 90030 assessed as late apoptotic cells at antifungal MIC90 after 24 hrs by Annexin V/propidium iodide staining based flow cytometry (reference value: 0.2%); assay type: functional
Pichia kudriavzevii [4] = experiment: Induction of apoptosis in Candida krusei ATCC 6258 assessed as live cells at antifungal MIC90 after 24 hrs by Annexin V/propidium iodide staining based flow cytometry (reference value: 97.3%); assay type: functional
Candida parapsilosis [5] = experiment: Induction of apoptosis in Candida parapsilosis ATCC 22019 assessed as live cells at antifungal MIC90 after 24 hrs by Annexin V/propidium iodide staining based flow cytometry (reference value: 97.6%); assay type: functional
Candida parapsilosis [6] = experiment: Induction of apoptosis in Candida parapsilosis ATCC 22019 assessed as late apoptotic cells at antifungal MIC90 after 24 hrs by Annexin V/propidium iodide staining based flow cytometry (reference value: 0.9%); assay type: functional
Candida parapsilosis [7] = experiment: Induction of apoptosis in Candida parapsilosis ATCC 22019 assessed as early apoptotic cells at antifungal MIC90 after 24 hrs by Annexin V/propidium iodide staining based flow cytometry (reference value: 0.1%); assay type: functional
Pichia kudriavzevii [8] = experiment: Antifungal activity against Candida krusei ATCC 6258 by broth microdilution assay; assay type: functional
Pichia kudriavzevii [9] = experiment: Induction of apoptosis in Candida krusei ATCC 6258 assessed as early apoptotic cells at antifungal MIC90 after 24 hrs by Annexin V/propidium iodide staining based flow cytometry (reference value: 0.5%); assay type: functional
Nakaseomyces glabratus [10] = experiment: Induction of apoptosis in Candida glabrata ATCC 90030 assessed as early apoptotic cells at antifungal MIC90 after 24 hrs by Annexin V/propidium iodide staining based flow cytometry (reference value: 0%); assay type: functional
Pichia kudriavzevii [11] = experiment: Induction of apoptosis in Candida krusei ATCC 6258 assessed as late apoptotic cells at antifungal MIC90 after 24 hrs by Annexin V/propidium iodide staining based flow cytometry (reference value: 1.4%); assay type: functional
Candida albicans [12] = experiment: Induction of apoptosis in Candida albicans ATCC 90028 assessed as late apoptotic cells at antifungal MIC90 after 24 hrs by Annexin V/propidium iodide staining based flow cytometry (reference value: 0%); assay type: functional
Candida parapsilosis [13] = experiment: Induction of apoptosis in Candida parapsilosis ATCC 22019 assessed as necrotic cells at antifungal MIC90 after 24 hrs by Annexin V/propidium iodide staining based flow cytometry (reference value: 1.4%); assay type: functional
Candida albicans [14] = experiment: Induction of apoptosis in Candida albicans ATCC 90028 assessed as necrotic cells at antifungal MIC90 after 24 hrs by Annexin V/propidium iodide staining based flow cytometry (reference value: 0.2%); assay type: functional
Nakaseomyces glabratus [15] = experiment: Antifungal activity against Candida glabrata ATCC 90030 by broth microdilution assay; assay type: functional
Candida albicans [16] = experiment: Antifungal activity against Candida albicans ATCC 90028 by broth microdilution assay; assay type: functional
Nakaseomyces glabratus [17] = experiment: Induction of apoptosis in Candida glabrata ATCC 90030 assessed as necrotic cells at antifungal MIC90 after 24 hrs by Annexin V/propidium iodide staining based flow cytometry (reference value: 0.3%); assay type: functional
Candida albicans [18] = experiment: Induction of apoptosis in Candida albicans ATCC 90028 assessed as early apoptotic cells at antifungal MIC90 after 24 hrs by Annexin V/propidium iodide staining based flow cytometry (reference value: 0%); assay type: functional
Nakaseomyces glabratus [19] = experiment: Induction of apoptosis in Candida glabrata ATCC 90030 assessed as live cells at antifungal MIC90 after 24 hrs by Annexin V/propidium iodide staining based flow cytometry (reference value: 99.5%); assay type: functional
Pichia kudriavzevii [20] = experiment: Induction of apoptosis in Candida krusei ATCC 6258 assessed as necrotic cells at antifungal MIC90 after 24 hrs by Annexin V/propidium iodide staining based flow cytometry (reference value: 0.9%); assay type: functional
NIH3T3 = experiment: Cytotoxicity against mouse NIH/3T3 cells assessed as reduction in cell viability after 24 hrs by MTT assay; assay type: cell-based; details: NIH3T3, 24 h
Pichia kudriavzevii [21] = experiment: Induction of apoptosis in Candida krusei ATCC 6258 assessed as increase in late apoptotic cells at antifungal MIC90 by Annexin V/propidium iodide staining based flow cytometry; assay type: functional, organism-based; details: TDE = time-dependent effect
Nakaseomyces glabratus [22] = experiment: Induction of apoptosis in Candida glabrata ATCC 90030 assessed as increase in late apoptotic cells at antifungal MIC90 by Annexin V/propidium iodide staining based flow cytometry; assay type: functional, organism-based; details: TDE = time-dependent effect
Candida parapsilosis [23] = experiment: Induction of apoptosis in Candida parapsilosis ATCC 22019 assessed as increase in late apoptotic cells at antifungal MIC90 by Annexin V/propidium iodide staining based flow cytometry; assay type: functional, organism-based; details: TDE = time-dependent effect
Candida albicans [24] = experiment: Induction of apoptosis in Candida albicans ATCC 90028 assessed as increase in late apoptotic cells at antifungal MIC90 by Annexin V/propidium iodide staining based flow cytometry; assay type: functional, organism-based; details: TDE = time-dependent effect

SMILES | Activity (Candida albicans [1]) [%] | MIC90 (Candida parapsilosis [2]) [µg/mL] | Activity (Nakaseomyces glabratus [3]) [%] | Activity (Pichia kudriavzevii [4]) [%] | Activity (Candida parapsilosis [5]) [%] | Activity (Candida parapsilosis [6]) [%] | Activity (Candida parapsilosis [7]) [%] | MIC90 (Pichia kudriavzevii [8]) [µg/mL] | Activity (Pichia kudriavzevii [9]) [%] | Activity (Nakaseomyces glabratus [10]) [%] | Activity (Pichia kudriavzevii [11]) [%] | Activity (Candida albicans [12]) [%] | Activity (Candida parapsilosis [13]) [%] | Activity (Candida albicans [14]) [%] | MIC90 (Nakaseomyces glabratus [15]) [µg/mL] | MIC90 (Candida albicans [16]) [µg/mL] | Activity (Nakaseomyces glabratus [17]) [%] | Activity (Candida albicans [18]) [%] | Activity (Nakaseomyces glabratus [19]) [%] | IC50 (NIH3T3) [µg/mL] | further results
Clc1ccccc1C(c1ccccc1)(c1ccccc1)n1ccnc1 [CLOTRIMAZOLE] | 56.7 | 1.56 (≈ 4.54 µM) | 2.7 | 32.6 | 50.7 | 6.4 | 0.8 | 1.56 (≈ 4.54 µM) | 0.6 | 0.3 | 12.4 | 3.1 | 42.2 | 39.7 | 62.5 (≈ 181 µM) | 31.2 (≈ 90.6 µM) | 50.7 | 0.6 | 46.3 | 289 (≈ 839 µM) | Activity (Pichia kudriavzevii [20]): 54.3%
Cn1cnnc1SCCc1nnc(SCC(=O)Nc2ccc([N+](=O)[O-])cc2)o1 | 79.1 | 125 (≈ 297 µM) | 1.8 | 70.5 | 93.4 | 4.2 | 0.3 | 125 (≈ 297 µM) | 0.3 | 0.4 | 3.4 | 13.5 | 4.2 | 7 | 62.5 (≈ 148 µM) | 62.5 (≈ 148 µM) | 19.1 | 0.4 | 78.7 | > 500 | Activity (Pichia kudriavzevii [20]): 25.9%
Cn1cnnc1SCCc1nnc(SCC(=O)Nc2ccc(F)cc2)o1 |  | 500 (≈ 1270 µM) |  |  |  |  |  | 500 (≈ 1270 µM) |  |  |  |  |  |  | 250 (≈ 634 µM) | 250 (≈ 634 µM) |  |  |  | > 500 | 
COc1ccc(NC(=O)CSc2nnc(CCSc3nncn3C)o2)cc1 |  | 500 (≈ 1230 µM) |  |  |  |  |  | 500 (≈ 1230 µM) |  |  |  |  |  |  | 250 (≈ 615 µM) | 250 (≈ 615 µM) |  |  |  | > 500 | 
Cn1cnnc1SCCc1nnc(SCC(=O)Nc2nc3ccccc3s2)o1 |  | 250 (≈ 577 µM) |  |  |  |  |  | 250 (≈ 577 µM) |  |  |  |  |  |  | 250 (≈ 577 µM) | 125 (≈ 288 µM) |  |  |  | > 500 | 
CC(=O)N1CCN(c2ccc(OCC3COC(Cn4ccnc4)(c4ccc(Cl)cc4Cl)O3)cc2)CC1 (stereo not drawn) [KETOCONAZOLE] | 35.3 | 1.56 (≈ 2.94 µM) | 4.1 | 23.8 | 27 | 15.2 | 0.5 | 1.56 (≈ 2.94 µM) | 0.3 | 0.1 | 8.3 | 11.2 | 57.3 | 52.4 | 62.5 (≈ 118 µM) | 62.5 (≈ 118 µM) | 72 | 1.1 | 23.7 | 396 (≈ 745 µM) | Activity (Pichia kudriavzevii [20]): 67.7%
Cn1cnnc1SCCc1nnc(SCC(=O)Nc2nc3ccc(F)cc3s2)o1 | 46.9 | 62.5 (≈ 138 µM) | 36.6 | 30.2 | 40.5 | 41.7 | 0.1 | 62.5 (≈ 138 µM) | 0 | 0.1 | 42.3 | 39.5 | 17.7 | 13.5 | 62.5 (≈ 138 µM) | 62.5 (≈ 138 µM) | 17 | 0.1 | 46.4 | > 500 | Activity (Pichia kudriavzevii [21]): Tde; Activity (Nakaseomyces glabratus [22]): Tde; Activity (Candida parapsilosis [23]): Tde; Activity (Candida albicans [24]): Tde; Activity (Pichia kudriavzevii [20]): 27.5%
Cn1cnnc1SCCc1nnc(SCC(=O)Nc2nc3ccc([N+](=O)[O-])cc3s2)o1 |  | 62.5 (≈ 131 µM) |  |  |  |  |  | 500 (≈ 1040 µM) |  |  |  |  |  |  | 500 (≈ 1040 µM) | 125 (≈ 261 µM) |  |  |  | > 500 | 
Cn1cnnc1SCCc1nnc(SCC(=O)Nc2ccccc2)o1 |  | 500 (≈ 1330 µM) |  |  |  |  |  | 500 (≈ 1330 µM) |  |  |  |  |  |  | 250 (≈ 664 µM) | 250 (≈ 664 µM) |  |  |  | > 500 | 
Cn1cnnc1SCCc1nnc(SCC(=O)Nc2ccc(Cl)cc2)o1 |  | 500 (≈ 1220 µM) |  |  |  |  |  | 500 (≈ 1220 µM) |  |  |  |  |  |  | 250 (≈ 608 µM) | 250 (≈ 608 µM) |  |  |  | > 500 | 
COc1ccc2nc(NC(=O)CSc3nnc(CCSc4nncn4C)o3)sc2c1 |  | 62.5 (≈ 135 µM) |  |  |  |  |  | 500 (≈ 1080 µM) |  |  |  |  |  |  | 500 (≈ 1080 µM) | 125 (≈ 270 µM) |  |  |  | 485 (≈ 1050 µM) | 
Cn1cnnc1SCCc1nnc(SCC(=O)Nc2nc3ccc(Cl)cc3s2)o1 |  | 62.5 (≈ 134 µM) |  |  |  |  |  | 500 (≈ 1070 µM) |  |  |  |  |  |  | 500 (≈ 1070 µM) | 125 (≈ 267 µM) |  |  |  | 422 (≈ 902 µM) | 

Reference: ChEMBL document CHEMBL4251611, “The synthesis, antifungal and apoptotic effects of triazole-oxadiazoles against Candida species” (Eur J Med Chem, 2018)
